We go through ten compounds from ChEMBL document CHEMBL1201862, “PubChem BioAssay data set” (2004).

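All cell lines were grown in 96-well plates and treated with compound for 48 hours. GI50 marks 50% less growth.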 Activity calls are given as the source filed them. Rule as the data show it: active = GI50 up to about 1.1 µM and inactive = higher.

Among the test systems are A498; A549; COLO 205; EKVX; HCC 2998; HOP-92; HT-29; K562; NCI-H23; NCI-H460; OVCAR-3; OVCAR-5; RPMI-8226; RXF 393; SF-295; SF-539; SK-MEL-28; SNB-75; SR; TK-10.
Common to all, as to assay: inhibition of tumour cell growth, NCI panel, 48 h

`COc1cc2[nH]c3c(c2cc1OC)CCN[C@]31CC[C@]2(CC3c4c(cc(OC)c(O)c42)CCN3C)C[C@H]1OC` (stereo not given in full): the GI50 was 24.8 µM (inactive) with A498; 25.1 µM (inactive) with A549; 13.7 µM (inactive) with COLO 205; 55.7 µM (inactive) with EKVX; 15.2 µM (inactive) with HCC 2998; 25.8 µM (inactive) with HOP-92. For the same compound, the GI50 was 22.3 µM (inactive) with HT-29; 11.6 µM (inactive) in the assay with K562; 65.5 µM (inactive) in the assay on NCI-H23; 23.8 µM (inactive) with NCI-H460; 21.2 µM (inactive) in the assay with OVCAR-3; 69.3 µM (inactive) in the assay on OVCAR-5. The GI50 is 15.2 µM (inactive) with RPMI-8226; 3.04 µM (inactive) in the assay with RXF 393; 20.5 µM (inactive) with SF-295; 17.1 µM (inactive) with SF-539; 20.2 µM (inactive) with SK-MEL-28; 21.5 µM (inactive) with SNB-75. Also, the results for the GI50 with SR and in the assay on TK-10 were 15.8 µM (inactive) and 21.6 µM (inactive), respectively.
Consider `CN(C)CCNc1ccc2c(=O)n(CCN(C)C)c(=O)n3c4ccc(O)cc4c(=O)c1c23`, for which the GI50 in the assay with A498 is 0.0611 µM (active); in the assay with A549 it was < 0.01 µM (active); in the assay on COLO 205, 0.0327 µM (active); in the assay with EKVX it was 0.183 µM (active); in the assay with HCC 2998, < 0.01 µM (active); in the assay on HOP-92 it was < 0.01 µM (active). For the same compound, the GI50 in the assay with HT-29 was < 0.01 µM (active); in the assay with K562, < 0.01 µM (active); in the assay with NCI-H23 it was < 0.01 µM (active); in the assay on NCI-H460 it was < 0.01 µM (active); in the assay on OVCAR-3 it was 0.105 µM (active); in the assay on OVCAR-5 it was 0.0775 µM (active). Moreover, the GI50 in the assay on RPMI-8226 was < 0.0104 µM (active); in the assay on RXF 393 it was < 0.0127 µM (active); with SF-295, < 0.01 µM (active); with SF-539, < 0.01 µM (active); with SK-MEL-28, 0.202 µM (active); in the assay on SNB-75 it was 0.029 µM (active). The GI50 with SR was < 0.01 µM (active); in the assay with TK-10, 0.197 µM (active).
Regarding `O=[N+]([O-])c1ccc(N/N=C/c2ccc(OCCCCCCCCCCCO)cc2)c([N+](=O)[O-])c1`, the GI50 is 36 µM (inactive) with A498; 5.96 µM (inactive) in the assay with A549; 2.01 µM (inactive) in the assay on COLO 205; 17 µM (inactive) in the assay on EKVX; 4.78 µM (inactive) with HCC 2998; 4.82 µM (inactive) in the assay on HOP-92. Besides, the GI50 was 1.48 µM (inactive) in the assay on HT-29; 1.15 µM (inactive) in the assay with K562; 14.4 µM (inactive) in the assay on NCI-H23; 2.5 µM (inactive) in the assay on NCI-H460; 30.3 µM (inactive) in the assay with OVCAR-3; 14.8 µM (inactive) in the assay on OVCAR-5. Moreover, the GI50 is 30.9 µM (inactive) in the assay on RPMI-8226; 2.07 µM (inactive) in the assay on RXF 393; 3.24 µM (inactive) in the assay with SF-295; 1.97 µM (inactive) in the assay on SF-539; 4 µM (inactive) in the assay with SK-MEL-28; 1.94 µM (inactive) with SNB-75. Moreover, the GI50 is 2.5 µM (inactive) in the assay on SR and 5.19 µM (inactive) in the assay with TK-10.
For the compound `COc1cc2c(oc(=O)c3c4oc([Si](C)(C)C)cc4cc(OC)c23)c2cccc(O)c12`, the GI50 with A498, in the assay with A549, in the assay on COLO 205, in the assay on EKVX, with HCC 2998 and in the assay with HOP-92 was > 100 µM (inactive) each time. The GI50 in the assay with HT-29, in the assay on K562, with NCI-H23, in the assay on NCI-H460, in the assay on OVCAR-3 and with OVCAR-5 was > 100 µM (inactive) throughout. Moreover, the GI50 in the assay with RPMI-8226 was > 100 µM (inactive); in the assay with RXF 393, > 100 µM (inactive); with SF-295, > 100 µM (inactive); in the assay with SF-539, > 100 µM (inactive); in the assay on SK-MEL-28 it was > 100 µM (inactive); in the assay on SNB-75, 36.4 µM (inactive). Also, the GI50 in the assay on SR and in the assay on TK-10 was > 100 µM (inactive) throughout.
`N#CCCN(CCC#N)c1ccc(/C=C2\SC(=S)NC2=O)cc1Br`: the GI50 is 33.3 µM (inactive) in the assay with A498; > 100 µM (inactive) with A549; > 100 µM (inactive) in the assay with COLO 205; 46.9 µM (inactive) with EKVX; > 100 µM (inactive) in the assay with HCC 2998; 50.5 µM (inactive) with HOP-92. Also, the GI50 in the assay with HT-29, in the assay on K562, in the assay on NCI-H23, in the assay with NCI-H460, with OVCAR-3 and in the assay on OVCAR-5 was > 100 µM (inactive) throughout. Further, the GI50 is > 100 µM (inactive) with RPMI-8226; 86.3 µM (inactive) in the assay with RXF 393; 27.9 µM (inactive) in the assay on SF-295; > 100 µM (inactive) in the assay on SF-539; > 100 µM (inactive) in the assay with SK-MEL-28; 17.8 µM (inactive) with SNB-75. In addition, the GI50 with SR and with TK-10 was > 100 µM (inactive) each time.
`COC(=O)C1([C@@H]2C[C@@H](O)[C@]3(C)CC/C=C(\C)CCC[C@H](C)[C@H](O)[C@@H]2O3)CC1`: the GI50 with A498 was > 100 µM (inactive); with A549 it was 33.9 µM (inactive); in the assay with COLO 205, 57 µM (inactive); with EKVX it was 81.7 µM (inactive); in the assay on HCC 2998 it was 63.1 µM (inactive); in the assay on HOP-92 it was 96.4 µM (inactive). Moreover, the GI50 with HT-29 was 42.5 µM (inactive); in the assay on K562, 34.8 µM (inactive); in the assay with NCI-H23 it was 50.4 µM (inactive); in the assay with NCI-H460, 32.7 µM (inactive); in the assay on OVCAR-3, 51.4 µM (inactive); in the assay on OVCAR-5, 80.5 µM (inactive). Besides, the GI50 in the assay on RPMI-8226 is 50.7 µM (inactive); in the assay on RXF 393, 52 µM (inactive); in the assay with SF-295, 43.1 µM (inactive); in the assay on SF-539, 91 µM (inactive); in the assay on SK-MEL-28 it was > 100 µM (inactive); with SNB-75 it was 0.286 µM (active). For the same compound, the GI50 was 39.4 µM (inactive) in the assay on SR and 57.7 µM (inactive) in the assay on TK-10.
For `COc1ccc(/C=C/c2cc(OC)cc(OC)c2)cc1` [TRISMETHOXYRESVERATROL], the GI50 in the assay with A498 is 6.18 µM (inactive); in the assay with A549 it was 6.32 µM (inactive); with COLO 205 it was 3.41 µM (inactive); in the assay on EKVX, > 22.4 µM (inactive); in the assay on HCC 2998, 9.79 µM (inactive); in the assay with HOP-92 it was 8.07 µM (inactive). For the same compound, the GI50 in the assay on HT-29 was 3.88 µM (inactive); in the assay on K562 it was 4.33 µM (inactive); in the assay on NCI-H23, 6.98 µM (inactive); in the assay on NCI-H460, 3.73 µM (inactive); in the assay with OVCAR-3 it was 3.3 µM (inactive); in the assay on OVCAR-5, 14 µM (inactive). In addition, the GI50 with RPMI-8226 was 3.56 µM (inactive); in the assay with RXF 393, 3.05 µM (inactive); in the assay on SF-295, 4.38 µM (inactive); in the assay with SF-539, 3.54 µM (inactive); with SK-MEL-28 it was 3.82 µM (inactive); in the assay with SNB-75, 4.82 µM (inactive). Besides, the values for the GI50 with SR and in the assay with TK-10 were 4.24 µM (inactive) and 12.6 µM (inactive), respectively.
For the compound `CC(C)CC12CC3CCC(CNC1=O)C32C` (stereo not given), the GI50 in the assay with A498, in the assay on A549, in the assay on COLO 205, in the assay on EKVX, in the assay with HCC 2998 and with HOP-92 was > 100 µM (inactive) in each case. Also, the GI50 was 72.9 µM (inactive) with HT-29; 43.5 µM (inactive) with K562; > 100 µM (inactive) in the assay with NCI-H23; > 100 µM (inactive) in the assay with NCI-H460; > 100 µM (inactive) in the assay with OVCAR-3; 96.8 µM (inactive) in the assay with OVCAR-5. Further, the GI50 was 49.9 µM (inactive) with RPMI-8226; > 100 µM (inactive) with RXF 393; > 100 µM (inactive) in the assay on SF-295; > 100 µM (inactive) in the assay with SF-539; > 100 µM (inactive) in the assay on SK-MEL-28; > 100 µM (inactive) with SNB-75. Further, the GI50 in the assay on SR is 63.7 µM (inactive); in the assay with TK-10, > 100 µM (inactive).
With `N#CC(C#N)=C1SC(=N\c2ccccc2)/C(=N/c2ccccc2)N1c1ccccc1`, the GI50 in the assay with A498 was > 52.2 µM (inactive); with A549, 58.9 µM (inactive); with COLO 205 it was 10.1 µM (inactive); with EKVX it was 36.6 µM (inactive); with HCC 2998, 15.2 µM (inactive); in the assay on HOP-92 it was 6.82 µM (inactive). Also, the GI50 with HT-29 is 24.2 µM (inactive); in the assay with K562, 2.3 µM (inactive); in the assay on NCI-H23, 29.6 µM (inactive); in the assay with NCI-H460, 19.2 µM (inactive); in the assay with OVCAR-3 it was 2.37 µM (inactive); in the assay on OVCAR-5, 20.7 µM (inactive). In addition, the GI50 is 5.75 µM (inactive) in the assay on RPMI-8226; 11 µM (inactive) in the assay with RXF 393; 25.2 µM (inactive) with SF-295; 10.1 µM (inactive) with SF-539; 22 µM (inactive) in the assay with SK-MEL-28; 30 µM (inactive) in the assay on SNB-75. Also, the GI50 was 3.03 µM (inactive) in the assay with SR and 44.1 µM (inactive) in the assay on TK-10.
On to `COc1cc(CNc2nc3ccccc3nc2C(=O)O)cc(OC)c1OC`, for which the GI50 in the assay on A498 was > 100 µM (inactive); with A549, > 100 µM (inactive); with COLO 205, > 100 µM (inactive); in the assay with EKVX, 64.1 µM (inactive); with HCC 2998, > 100 µM (inactive); in the assay on HOP-92, 65 µM (inactive). The GI50 in the assay on HT-29 was > 100 µM (inactive); in the assay with K562, > 100 µM (inactive); in the assay with NCI-H23 it was > 100 µM (inactive); with NCI-H460 it was 94 µM (inactive); in the assay on OVCAR-3, > 100 µM (inactive); in the assay with OVCAR-5, > 100 µM (inactive). Besides, the GI50 is > 100 µM (inactive) with RPMI-8226; 94 µM (inactive) in the assay with RXF 393; > 100 µM (inactive) in the assay on SF-295; > 100 µM (inactive) in the assay with SF-539; > 100 µM (inactive) in the assay on SK-MEL-28; 76.7 µM (inactive) in the assay on SNB-75. The GI50 with SR is 99.1 µM (inactive); in the assay with TK-10, > 100 µM (inactive).
